Where two headings read alike, the source gives them in different places. One block for each molecule: values may come before it.
Key:
[1] = target: T1, bovine milk XO (Bos taurus, UniProt P80457); assay: XO inhibitory activity assay (uric acid formation from xanthine, absorbance at 295 nm); assay type: biochemical; settings: for inhibition at 5 µM: read-out: XO inhibitory activity (%); for inhibition at 25 µM: read-out: Xanthine Oxidase Inhibition %
T1 construct: The bovine milk XO activity was assayed; from tissue; host or cells: bovine milk
Procedure: The bovine milk XO activity was assayed following the previously published procedures. […] First, 125 µL of 100 mM sodium pyrophosphate buffer (HCl, pH 7.5), 30 µL of 0.1 units XO enzyme, 5 µL of test samples, and 40 µL of the substrate (0.5 mM xanthine) were mixed. […] The inhibition mechanism and constants (Km, Vmax, and Ki) of a binding site for the inhibitor to a free enzyme (KI) or an enzyme–substrate complex (KIS) were determined using the Lineweaver–Burk and Dixon plots.
The ARE was prepared using five different polar solvents (EtOH, 70% EtOH, 50% EtOH, 30% EtOH, and H2O) and tested for their XO inhibitory activity.

[2] = target: T1, bovine milk XO; assay: XO kinetic assay (Lineweaver–Burk and Dixon plots, reversibility, preincubation); assay type: biochemical; settings: for Xanthine Oxidase Kinetic Mode: Lineweaver–Burk and Dixon plots
Procedure: The bovine milk XO activity was assayed following the previously published procedures. […] First, 125 µL of 100 mM sodium pyrophosphate buffer (HCl, pH 7.5), 30 µL of 0.1 units XO enzyme, 5 µL of test samples, and 40 µL of the substrate (0.5 mM xanthine) were mixed. The reaction mixture (200 µL) in a 300 µL well plate was incubated at 37 °C and the UV absorbance at 295 nm was screened every 1 min for 15 min. The inhibition mechanism and constants (Km, Vmax, and Ki) of a binding site for the inhibitor to a free enzyme (KI) or an enzyme–substrate complex (KIS) were determined using the Lineweaver–Burk and Dixon plots. 1/V = Km/Vmax (1 + [I]/KI) 1/S + 1/Vmax(1) Slope = Km/KI Vmax [I] + Km/Vmax (2) Intercept = 1/KIS Vmax [I] + 1/Vmax (3) […]
The kinetic behaviors of the oxidation of xanthine catalyzed by XO at different concentrations of inhibitor were analyzed using both Lineweaver–Burk (Figure 3A) and Dixon plots (Figure 3B). […] The two possible inhibition mechanisms were investigated to reveal which one gives this kinetic profile. The mechanisms of mixed inhibition can be investigated through the changes of the substrate with inhibitor followed by measurements of the residual enzyme–substrate complex. Parameters of free enzyme (KI) and the enzyme–substrate complex (KIS) can be fitted to Equations (2) and (3). […] Further analysis of the progress of the inhibition was undertaken by preincubating the enzyme with 7, prior to the addition of the substrate.

[3] = isolated compounds and positive controls, read-out: Xanthine Oxidase IC50
[4] = sample concentration 25 µM for the compound

T1 sequence (P80457 whole entry): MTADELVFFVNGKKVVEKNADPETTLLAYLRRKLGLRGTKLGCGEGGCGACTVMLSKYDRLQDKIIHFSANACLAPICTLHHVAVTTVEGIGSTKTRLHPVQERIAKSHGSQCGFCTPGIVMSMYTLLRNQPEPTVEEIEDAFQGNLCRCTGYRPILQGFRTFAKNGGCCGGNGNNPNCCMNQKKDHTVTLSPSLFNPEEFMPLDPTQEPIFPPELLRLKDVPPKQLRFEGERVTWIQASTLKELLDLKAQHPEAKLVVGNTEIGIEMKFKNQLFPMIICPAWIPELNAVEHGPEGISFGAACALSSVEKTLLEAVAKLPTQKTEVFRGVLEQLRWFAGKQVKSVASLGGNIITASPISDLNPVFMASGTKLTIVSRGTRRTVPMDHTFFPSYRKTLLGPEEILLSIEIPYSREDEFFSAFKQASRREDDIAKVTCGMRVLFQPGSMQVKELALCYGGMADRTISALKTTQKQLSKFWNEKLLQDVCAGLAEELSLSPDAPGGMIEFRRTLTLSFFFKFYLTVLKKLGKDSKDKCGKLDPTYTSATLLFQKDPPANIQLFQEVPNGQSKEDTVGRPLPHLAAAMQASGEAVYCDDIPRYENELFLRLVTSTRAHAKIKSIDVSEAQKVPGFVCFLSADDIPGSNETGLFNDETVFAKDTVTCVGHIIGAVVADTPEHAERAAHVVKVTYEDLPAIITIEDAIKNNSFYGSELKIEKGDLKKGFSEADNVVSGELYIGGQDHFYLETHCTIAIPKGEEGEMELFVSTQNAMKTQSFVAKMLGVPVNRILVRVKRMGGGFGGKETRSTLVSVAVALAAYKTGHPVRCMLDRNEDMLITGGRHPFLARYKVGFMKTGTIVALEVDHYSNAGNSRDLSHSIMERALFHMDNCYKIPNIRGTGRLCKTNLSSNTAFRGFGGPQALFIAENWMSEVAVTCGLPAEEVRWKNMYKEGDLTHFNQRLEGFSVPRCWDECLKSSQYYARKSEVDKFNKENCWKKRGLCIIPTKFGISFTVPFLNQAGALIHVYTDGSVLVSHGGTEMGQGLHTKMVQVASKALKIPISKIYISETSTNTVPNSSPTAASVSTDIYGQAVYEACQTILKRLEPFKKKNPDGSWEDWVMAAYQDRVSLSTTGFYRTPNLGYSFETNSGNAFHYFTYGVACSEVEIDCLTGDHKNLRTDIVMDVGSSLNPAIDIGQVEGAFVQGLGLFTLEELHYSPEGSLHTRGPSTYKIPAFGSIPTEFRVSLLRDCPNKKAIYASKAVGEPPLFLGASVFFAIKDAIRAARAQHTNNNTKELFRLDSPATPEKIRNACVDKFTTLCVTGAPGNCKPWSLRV

SMILES: Oc1ncnc2[nH]ncc12 [Allopurinol, reference compound]
- inhibition at 5 µM [1]: 51.9%
- inhibition at 25 µM [1]: 82.5 ± 1.2%
- Xanthine Oxidase Kinetic Mode [2]: Competitive

SMILES: O=C(/C=C/c1ccc(O)c(O)c1)O[C@H](Cc1ccc(O)c(O)c1)C(=O)O [Compound 1, Rosmarinic acid]
- IC50 [1, 3]: > 100 µM
- inhibition at 25 µM [1, 4]: 27.2 ± 1.5%

SMILES: O=C(/C=C/c1ccc(O)c2c1[C@H](C(=O)O[C@H](Cc1ccc(O)c(O)c1)C(=O)O)[C@@H](c1ccc(O)c(O)c1)O2)O[C@H](Cc1ccc(O)c(O)c1)C(=O)O [Compound 2, Salvianolic acid B]
- IC50 [1]: 30.7 ± 0.8 µM
- inhibition at 25 µM [1, 4]: 46.1 ± 1.2%

SMILES: COc1ccc(-c2cc(=O)c3c(O)cc(OC4OC(COC(=O)CC(=O)O)C(O)C(O)C4OC(C)=O)cc3o2)cc1 [Compound 6, Acacetin 7-O-(2″-O-acetyl-6″-O-malonyl)-β-D-glucoside]
- IC50 [1, 3]: > 100 µM
- inhibition at 25 µM [1, 4]: 26.2 ± 0.9%

Continued, values first:

- inhibition at 5 µM ([1]; concentration of 5 μM): 67.2%
- IC50 [1, 3]: 0.87 µM
- inhibition at 25 µM [1, 4]: 88.6 ± 1.2%
- Xanthine Oxidase Kinetic Mode [2]: Competitive
SMILES: O=c1cc(-c2ccc(O)cc2)oc2cc(O)cc(O)c12 [Apigenin, reference compound]

- IC50 [1, 3]: 26.4 ± 0.6 µM
- inhibition at 25 µM [1, 4]: 49.3 ± 1.5%
SMILES: COc1ccc(-c2cc(=O)c3c(O)cc(O[C@@H]4O[C@H](CO)[C@@H](O)[C@H](O)[C@H]4O)cc3o2)cc1 [Compound 3, Tilianin]

- IC50 [1, 3]: 80.6 ± 0.7 µM
- inhibition at 25 µM [1, 4]: 36.2 ± 1.4%
SMILES: COc1ccc(-c2cc(=O)c3c(O)cc(OC4OC(COC(=O)CC(=O)O)C(O)C(O)C4O)cc3o2)cc1 [Compound 4, Acacetin 7-O-(6-O-malonyl)-β-D-glucoside]

- IC50 [1, 3]: 74.5 ± 0.9 µM
- inhibition at 25 µM [1, 4]: 40.7 ± 1.5%
SMILES: COc1ccc(-c2cc(=O)c3c(O)cc(OC4OC(CO)C(O)C(O)C4OC(C)=O)cc3o2)cc1 [Compound 5, Acacetin 7-O-(2″-O-acetyl)-β-D-glucoside]

- inhibition at 5 µM ([1]; concentration of 5 μM): 75.5%
- IC50 [1, 3]: 0.58 ± 0.5 µM
- inhibition at 25 µM [1, 4]: 94.5 ± 1.4%
- Ki ([2]; Dixon plots, read-out: Xanthine Oxidase Ki): 0.61 µM
- Xanthine Oxidase Kinetic Mode [2]: mixed type I
- Reversibility of XO inhibition ([2]; activity versus enzyme concentration at 0-1.56 μM inhibitor): reversible inhibition
- Inhibition as a function of preincubation time ([2]; enzyme preincubated with inhibitor at 0.2 μM): time-dependent inhibitory behavior
- KIS (inhibitor binding to enzyme–substrate complex) ([2]; secondary plot of intercept, Equation (3)): 1.14 µM
- Ki ([2]; secondary plot of slope, Equation (2), read-out: KI (inhibitor binding to free enzyme)): 0.57 µM
SMILES: COc1ccc(-c2cc(=O)c3c(O)cc(O)cc3o2)cc1 [Compound 7, Acacetin]
